# Assay results as given in patent US9408854B2, “Methods and systems for pharmacogenomic treatment of cardiovascular conditions” (ROSTAQUO S.P.A., priority 2009, dated 2016).
# Legend:
# Na—K Pump and cSrc = experiment: In vitro correction of the effect of mutated adducin or ouabain on Na-K pump and cSrc; assay type: biochemical; details: picomolar concentrations in vitro
# [1] = Maximal tolerated dose without any effects (NOAEL) in animals; details: in vivo, read-out: maximal tolerated dose that does not produce any effects (NOAEL)
# hypertensive patients = experiment: Two separate studies: blood pressure change with HCTZ, Losartan and rostafuroxin in patients carrying profile 4, 8 or 9; assay type: in vivo, human; details: preliminary data
# Excerpt: In particular, individuals carrying profile 4 show a modification in blood pressure of: −12.3±1.5 mmHg with HCTZ; −11.3±1.7 with Losartan and −18.74±1.8 mmHg with rostafuroxin; individuals with profile 8 show the a decrease in blood pressure of −11.3±1.2 with HCTZ; −11.6±1.3 with Losartan and −15.2±1.5 mmHg with rostafuroxin; individuals with profile 9 show the a decrease in blood pressure of −11.9±1.2 with HCTZ; −11.4±1.4 with Losartan and −15.2±1.5 mmHg with rostafuroxin.
smiles,measurement,setting,value
"C[C@]12CC[C@H](O)C[C@H]1CC[C@@H]1[C@@H]2CC[C@]2(C)[C@@](O)(c3ccoc3)CC[C@]12O [rostafuroxin, 17β-(3-furyl)-5β-androstane-3β,14β,17α-triol]",correction of the effect of mutated adducin or ouabain on Na—K Pump and cSrc,Na—K Pump and cSrc,"able to selectively correct the effect of mutated adducin or ouabain on Na—K Pump and cSrc, without blocking the effect of wild adducin"
same,NOAEL,[1],100 mg/kg
same,modification in blood pressure,hypertensive patients; individuals carrying profile 4,−18.74±1.8 mmHg
same,decrease in blood pressure,hypertensive patients; individuals with profile 8,−15.2±1.5 mmHg
same,decrease in blood pressure,hypertensive patients; individuals with profile 9,−15.2±1.5 mmHg
